Test results: ChEMBL document CHEMBL5291721, “A preclinical secondary pharmacology resource illuminates target-adverse drug reaction associations of marketed drugs” (Nat Commun, 2023)

Assays:
Substance-K receptor = target: T1, Substance-K receptor (Homo sapiens, UniProt P21452)
T1 sequence (P21452 whole entry): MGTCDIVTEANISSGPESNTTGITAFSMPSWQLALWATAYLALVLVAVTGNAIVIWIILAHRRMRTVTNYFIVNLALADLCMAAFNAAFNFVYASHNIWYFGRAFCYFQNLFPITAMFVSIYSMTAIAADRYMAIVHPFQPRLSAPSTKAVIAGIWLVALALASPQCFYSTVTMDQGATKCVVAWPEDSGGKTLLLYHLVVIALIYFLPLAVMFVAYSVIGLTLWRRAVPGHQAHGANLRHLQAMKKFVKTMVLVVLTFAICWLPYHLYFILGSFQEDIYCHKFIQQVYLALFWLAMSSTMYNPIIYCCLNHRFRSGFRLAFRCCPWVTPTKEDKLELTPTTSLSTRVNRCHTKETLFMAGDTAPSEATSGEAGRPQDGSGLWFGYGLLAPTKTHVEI

[1] = target: T2, Retinoic acid receptor alpha (Homo sapiens, UniProt P10276); type: functional, cell-based
T2 sequence (P10276 whole entry): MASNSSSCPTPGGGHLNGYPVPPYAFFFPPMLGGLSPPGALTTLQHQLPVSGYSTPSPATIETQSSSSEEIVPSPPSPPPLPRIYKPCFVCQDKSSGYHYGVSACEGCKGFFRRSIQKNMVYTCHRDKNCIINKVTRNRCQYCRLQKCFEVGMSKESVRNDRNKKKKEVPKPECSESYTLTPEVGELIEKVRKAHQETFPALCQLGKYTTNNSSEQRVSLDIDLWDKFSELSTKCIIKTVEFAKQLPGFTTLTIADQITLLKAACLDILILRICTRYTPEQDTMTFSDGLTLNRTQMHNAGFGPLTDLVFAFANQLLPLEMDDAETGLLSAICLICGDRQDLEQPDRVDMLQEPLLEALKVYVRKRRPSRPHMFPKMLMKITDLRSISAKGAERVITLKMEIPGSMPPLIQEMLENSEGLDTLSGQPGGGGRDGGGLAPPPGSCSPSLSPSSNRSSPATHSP

[2] = target: T3, Retinoic acid receptor beta (Homo sapiens, UniProt P10826); type: functional, cell-based
T3 sequence (P10826 whole entry): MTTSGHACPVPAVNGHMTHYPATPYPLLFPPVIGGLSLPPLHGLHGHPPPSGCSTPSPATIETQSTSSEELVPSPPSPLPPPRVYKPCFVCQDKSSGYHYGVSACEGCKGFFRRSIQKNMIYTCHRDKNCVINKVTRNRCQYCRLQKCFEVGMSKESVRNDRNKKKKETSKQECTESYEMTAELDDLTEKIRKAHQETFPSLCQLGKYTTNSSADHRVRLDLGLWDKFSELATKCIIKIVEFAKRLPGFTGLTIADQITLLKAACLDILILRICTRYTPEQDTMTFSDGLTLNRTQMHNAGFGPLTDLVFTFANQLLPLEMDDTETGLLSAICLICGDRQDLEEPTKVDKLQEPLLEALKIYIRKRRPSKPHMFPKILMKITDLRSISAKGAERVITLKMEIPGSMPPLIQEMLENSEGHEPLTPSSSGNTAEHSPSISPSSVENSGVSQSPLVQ

[3] = target: T4, Oxysterols receptor LXR-beta (Homo sapiens, UniProt P55055); type: functional
T4 sequence (P55055 whole entry): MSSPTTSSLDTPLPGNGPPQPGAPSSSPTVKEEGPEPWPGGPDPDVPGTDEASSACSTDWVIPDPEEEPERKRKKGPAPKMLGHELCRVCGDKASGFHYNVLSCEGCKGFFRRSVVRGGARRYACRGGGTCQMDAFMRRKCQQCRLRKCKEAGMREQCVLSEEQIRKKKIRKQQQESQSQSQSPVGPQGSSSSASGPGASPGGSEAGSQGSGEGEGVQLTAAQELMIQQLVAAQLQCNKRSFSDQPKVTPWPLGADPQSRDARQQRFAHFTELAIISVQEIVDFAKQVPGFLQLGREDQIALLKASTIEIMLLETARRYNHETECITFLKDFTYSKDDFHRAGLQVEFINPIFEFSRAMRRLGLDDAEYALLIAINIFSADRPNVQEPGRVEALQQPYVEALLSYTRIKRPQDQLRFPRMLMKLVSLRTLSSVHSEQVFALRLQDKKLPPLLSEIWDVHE

[4] = target: T5, Oxysterols receptor LXR-alpha (Homo sapiens, UniProt Q13133); type: functional
T5 sequence (Q13133 whole entry): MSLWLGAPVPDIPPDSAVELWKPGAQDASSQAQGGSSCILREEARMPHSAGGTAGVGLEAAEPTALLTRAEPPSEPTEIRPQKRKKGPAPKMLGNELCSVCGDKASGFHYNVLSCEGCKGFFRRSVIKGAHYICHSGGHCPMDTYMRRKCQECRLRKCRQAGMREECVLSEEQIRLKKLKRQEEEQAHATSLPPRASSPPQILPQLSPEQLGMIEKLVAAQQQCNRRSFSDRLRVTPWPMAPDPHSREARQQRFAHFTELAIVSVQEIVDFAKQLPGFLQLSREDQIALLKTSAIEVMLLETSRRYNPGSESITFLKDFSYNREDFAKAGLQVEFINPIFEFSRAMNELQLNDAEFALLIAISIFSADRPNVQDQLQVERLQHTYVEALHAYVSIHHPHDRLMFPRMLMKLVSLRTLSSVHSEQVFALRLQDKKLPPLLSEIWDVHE

[5] = target: T6, Retinoic acid receptor gamma (Homo sapiens, UniProt P13631); type: functional, cell-based
T6 sequence (P13631 whole entry): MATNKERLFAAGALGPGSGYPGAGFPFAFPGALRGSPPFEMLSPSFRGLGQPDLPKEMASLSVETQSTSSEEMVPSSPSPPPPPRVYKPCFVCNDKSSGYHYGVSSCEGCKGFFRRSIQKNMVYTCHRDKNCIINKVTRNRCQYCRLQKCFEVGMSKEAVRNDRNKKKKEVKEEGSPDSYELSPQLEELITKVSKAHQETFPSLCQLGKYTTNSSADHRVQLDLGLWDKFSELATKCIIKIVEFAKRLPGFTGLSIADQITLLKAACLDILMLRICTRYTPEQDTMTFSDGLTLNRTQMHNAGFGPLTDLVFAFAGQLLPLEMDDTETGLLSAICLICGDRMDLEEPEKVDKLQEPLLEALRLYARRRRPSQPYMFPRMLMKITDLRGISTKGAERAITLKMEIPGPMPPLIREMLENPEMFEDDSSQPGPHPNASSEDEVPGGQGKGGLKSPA

[6] = target: T5, Oxysterols receptor LXR-alpha; type: functional; remark: listed apart in the source
[7] = target: T2, Retinoic acid receptor alpha; type: functional, cell-based; remark: listed apart in the source
Note: assay procedure not described here.

Row | AC50 [1] [µM] | AC50 [2] [µM] | AC50 [3] [µM] | AC50 [4] [µM] | AC50 [5] [µM] | AC50 [6] [µM] | AC50 [7] [µM] | Structure (SMILES) | AC50 (Substance-K receptor) [µM]
1 |  |  |  |  |  |  |  | CCOC(=O)[C@H](CCc1ccccc1)N[C@@H](C)C(=O)N1Cc2ccccc2C[C@H]1C(=O)O | > 10
2 | > 30 | > 30 | > 30 | > 30 | > 30 | > 30 | > 30 | CC(C)/N=c1\cc2n(-c3ccc(Cl)cc3)c3ccccc3nc-2cc1Nc1ccc(Cl)cc1 [CLOFAZIMINE] | 
